Key:
[1] = tested on: rats; experiment: Suppressive action on pre-pulse inhibition (PPI) decreased by methamphetamine, startle reaction of rats; assay type: in vivo, rat; details: compound orally 1 to 10 mg/kg 30 minutes before methamphetamine 3 mg/kg, significant suppressive action on decreased PPI
Procedure: Suppressive Action of the Compound to Pre-Pulse Inhibition which Decreases by Methamphetamine)
Investigation was also carried out in a test system of a pre-pulse inhibition where action of antipsychotic agents is able to be specifically detected. A startle reaction being stimulated by combining sonic stimulations of […] and 72 dB (pre-pulse) prior to pulse stimulation and startle reaction to sonic stimulation of 120 dB (pulse stimulation) in the presence of a back sound of 60 dB was measured using a startle reaction measuring device which perceives the body movement of rats (manufactured by San Diego Instrument). The compound of the present invention or an appropriate solvent was administered to a rat and, after 30 minutes, a physiological saline solution of 3 mg/kg of methamphetamine was administered whereupon measurement of a startle reaction was carried out. The startle reactions upon the pulse stimulation and in the presence of pre-pulse were defined as A and B, respectively and values of pre-pulse inhibition (hereinafter, referred to as PPI) were calculated from the following formula.
Method for calculation of PPI: PPI(%)=100×(A−B)/A
When a pre-treatment with methamphetamine was conducted, the startle reaction attenuated to an extent of only about 20% whereby a reduction in pre-pulse inhibition was noted. In the present model, lowering of pre-pulse inhibition by methamphetamine tends to be recovered when a compound having an mGluR1 antagonistic action was orally administered (1 to 10 mg/kg) 30 minutes before the administration of methamphetamine.

[2] = biological target: T1, human metabotropic glutamic acid receptor 1a (mGluR1a) (Homo sapiens, UniProt Q13255); experiment: mGluR1-inhibiting action: calcium concentration in CHO cells expressing mGluR1a (FLIPR); assay type: cell-based; details: suppression of rise in calcium raised by 10 μM glutamic acid, test compound added 5 minutes before agonist
T1 construct: expressed in transfected cells
Procedure: cDNA of human metabotropic glutamic acid receptor 1a (mGluR1a) was transfected to CHO cells using Lipofectamine (manufactured by Gibco BRL) to give a strain which stably expresses mGluR1a. The CHO cells in which mGluR1a was expressed were incubated in a DMEM medium containing 10% of dialyzed fetal bovine serum, 1% of proline, 100 units/ml of penicillin, 0.1 mg/ml of streptomycin sulfate and 2 mM of glutamine.
On the day before the measurement, 4 μM Fluo-3 was incubated in a CO2 incubator for 1 hour to the CHO cells where mGluR1a was expressed being plated with 50,000 cells per well of a 96-well black plate (View Plate manufactured by Packard). After that, the cells were washed for four times with an HBSS solution containing 20 mM of HEPES and 2.5 mM of Probenecid and then calcium concentration in the cells was measured using a Fluorescence Imaging Plate Reader (FLIPR, manufactured by Molecular Device). Incidentally, the test compound and glutamic acid were prepared using an HBSS solution containing 20 mM HEPES and 2.5 mM Probenecid. The test compound was added before 5 minutes of the stimulation with an agonist and, with regard to the agonist, 10 μM glutamic acid was used.

[3] = tested on: Male ICR (CD-1) mice; experiment: Suppressive action on autonomic momentum (behavior quantity) in mice increased by methamphetamine; assay type: in vivo; details: compound 10 mg/kg intraperitoneally 30 minutes before methamphetamine 2 mg/kg subcutaneous, behavior quantity during 60 minutes
Procedure: Suppressive Action of the Compound to Autonomic Momentum in Mice which Increases by Methamphetamine
Male ICR (CD-1) mice (20 to 40 g) were used and behavior quantity was measured using a behavior quantity measuring device (manufactured by Neuroscience) where movement of animals is perceived by an infrared sensor. A compound or an appropriate solvent was administered to a mouse and, after 30 minutes, a physiological saline solution or methamphetamine was administered. Behavior quantities immediately after that and until 60 minutes thereafter were measured. Difference between the behavior quantity of the methamphetamine-administered group and that of the solvent-administered group during the measuring period was defined as 100% and evaluation was conducted by expressing the inhibitory % in behavior quantity of the test-compound-administered group.

T1 sequence (Q13255 19-1194): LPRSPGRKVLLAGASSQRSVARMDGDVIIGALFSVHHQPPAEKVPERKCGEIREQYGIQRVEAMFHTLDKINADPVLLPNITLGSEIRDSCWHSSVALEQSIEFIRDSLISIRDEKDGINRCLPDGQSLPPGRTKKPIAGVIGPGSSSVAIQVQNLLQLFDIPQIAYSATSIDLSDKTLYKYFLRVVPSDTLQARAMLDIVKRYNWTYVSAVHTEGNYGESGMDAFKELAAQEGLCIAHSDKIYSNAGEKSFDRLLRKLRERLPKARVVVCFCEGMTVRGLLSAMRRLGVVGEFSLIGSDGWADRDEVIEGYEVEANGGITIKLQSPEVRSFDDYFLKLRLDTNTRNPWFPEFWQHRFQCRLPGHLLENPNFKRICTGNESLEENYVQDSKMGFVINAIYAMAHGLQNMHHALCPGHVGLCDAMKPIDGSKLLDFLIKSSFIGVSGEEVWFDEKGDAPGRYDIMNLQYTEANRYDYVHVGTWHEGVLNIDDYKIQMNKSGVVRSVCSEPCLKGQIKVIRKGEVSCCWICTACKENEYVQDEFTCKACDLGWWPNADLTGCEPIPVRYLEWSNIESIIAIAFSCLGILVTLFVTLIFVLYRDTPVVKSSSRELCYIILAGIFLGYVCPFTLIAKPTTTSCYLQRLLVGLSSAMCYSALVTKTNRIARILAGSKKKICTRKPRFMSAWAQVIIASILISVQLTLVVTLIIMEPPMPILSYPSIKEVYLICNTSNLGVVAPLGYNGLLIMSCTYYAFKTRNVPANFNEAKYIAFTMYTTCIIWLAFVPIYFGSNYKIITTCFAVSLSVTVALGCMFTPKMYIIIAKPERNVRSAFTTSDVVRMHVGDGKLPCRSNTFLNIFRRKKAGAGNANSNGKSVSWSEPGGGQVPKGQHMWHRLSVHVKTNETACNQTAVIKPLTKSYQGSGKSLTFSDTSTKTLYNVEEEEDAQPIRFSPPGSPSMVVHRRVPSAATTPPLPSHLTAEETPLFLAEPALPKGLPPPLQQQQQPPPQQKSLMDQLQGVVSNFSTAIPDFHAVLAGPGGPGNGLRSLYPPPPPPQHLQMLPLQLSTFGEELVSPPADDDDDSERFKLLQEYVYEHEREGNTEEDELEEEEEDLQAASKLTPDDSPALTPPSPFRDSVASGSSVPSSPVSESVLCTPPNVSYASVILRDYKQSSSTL

| IC50 [2] [nM] | SMILES | Inhibition Effect to PPI Disorder [1] | Motility Quantity (Suppressive %) [3] [%] |
| --- | --- | --- | --- |
| 6.7 | Cc1c(C2=CCN(C(=O)OC(C)C)CC2)nnn1-c1cccnc1Cl [Example 42, Isopropyl 4-[1-(2-chloropyridin-3-yl)-5-methyl-1H-[1,2,3]-triazol-4-yl]-1,2,3,6-tetrahydropyridine-1-carboxylate] | yes | >80 |
| 6.8 | Cc1c(C2=CCN(C(=O)OC(C)C)CC2)nnn1-c1ccc(F)nc1 [Example 43, Isopropyl 4-[1-(2-fluoropyridin-5-yl)-5-methyl-1H-[1,2,3]triazol-4-yl]-1,2,3,6-tetrahydropyridine-1-carboxylate] | yes | >80 |
| – | Cc1c(C2=CCN(C(=O)N(C)C(C)C)CC2)nnn1-c1cccnc1F [Example 82, 4-[1-(2-Fluoropyridin-3-yl)-5-methyl-1H-[1,2,3]-triazol-4-yl]-1,2,3,6-tetrahydropyridine-1-carboxylic acid isopropylmethylamide] | yes | – |
| – | Cc1c(C2=CCN(C(=O)N(C)C(C)C)CC2)nnn1-c1cccnc1Cl [Example 84] | – | >80 |
